Experimental data published in PubChem BioAssay (NCI).
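Where inhibition never reached the appropriate level, the endpoint shown equals the highest concentration tested. Otherwise, values were interpolated linearly from a five-concentration, 48-hour dose response in 96-well plates. GI50 is the concentration that inhibits growth by half. The concentration for full growth arrest is given as TGI.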

What was measured:
Assay in all cases: NCI tumour cell line growth inhibition, 48 h
HOP-92 NSCLC = test system: HOP-92 NSCLC
K-562 leukemia = test system: K-562 leukemia
OVCAR-5 ovarian = test system: OVCAR-5 ovarian
RXF 393 renal = test system: RXF 393 renal
HCT-116 colon = test system: HCT-116 colon
IGROV1 ovarian = test system: IGROV1 ovarian
NCI-H23 lung = test system: NCI-H23 lung
786-0 renal = test system: 786-0 renal
UACC-257 melanoma = test system: UACC-257 melanoma
HL-60(TB) leukemia = test system: HL-60(TB) leukemia
ACHN renal = test system: ACHN renal
NCI-H460 lung = test system: NCI-H460 lung
HS 578T breast = test system: HS 578T breast
HT29 colon = test system: HT29 colon
MDA-MB-435 = test system: MDA-MB-435
KM12 colon = test system: KM12 colon
RPMI-8226 leukemia = test system: RPMI-8226 leukemia
A498 renal = test system: A498 renal
SK-MEL-5 melanoma = test system: SK-MEL-5 melanoma
SNB-75 CNS = test system: SNB-75 CNS
M14 melanoma = test system: M14 melanoma
A549 NSCLC = test system: A549 NSCLC
OVCAR-8 ovarian = test system: OVCAR-8 ovarian
SK-MEL-2 melanoma = test system: SK-MEL-2 melanoma
SK-MEL-28 melanoma = test system: SK-MEL-28 melanoma
CAKI-1 renal = test system: CAKI-1 renal
HCC-2998 colon = test system: HCC-2998 colon
HOP-62 NSCLC = test system: HOP-62 NSCLC
HCT-15 colon = test system: HCT-15 colon
OVCAR-3 ovarian = test system: OVCAR-3 ovarian
DU-145 prostate = test system: DU-145 prostate
U251 CNS = test system: U251 CNS
MCF7 breast = test system: MCF7 breast
UACC-62 melanoma = test system: UACC-62 melanoma
LOX IMVI melanoma = test system: LOX IMVI melanoma
SF-295 CNS = test system: SF-295 CNS
UO-31 renal = test system: UO-31 renal
EKVX NSCLC = test system: EKVX NSCLC
NCI-H522 lung = test system: NCI-H522 lung
OVCAR-4 ovarian = test system: OVCAR-4 ovarian
SF-268 CNS = test system: SF-268 CNS
BT-549 breast = test system: BT-549 breast
SN12C renal = test system: SN12C renal
MDA-MB-231 breast = test system: MDA-MB-231 breast
COLO 205 colon = test system: COLO 205 colon
PC-3 prostate = test system: PC-3 prostate
MOLT-4 leukemia = test system: MOLT-4 leukemia
CCRF-CEM leukemia = test system: CCRF-CEM leukemia
SNB-19 CNS = test system: SNB-19 CNS
SW-620 colon = test system: SW-620 colon
SR leukemia = test system: SR leukemia
NCI/ADR-RES ovarian = test system: NCI/ADR-RES ovarian
TK-10 renal = test system: TK-10 renal
NCI-H226 lung = test system: NCI-H226 lung

Structure (SMILES): Cc1cc(C)c(-c2cc(O)c(-c3c(C)cc(C)cc3C)cc2O)c(C)c1
- GI50 (HOP-92 NSCLC): 37.2 µM
- TGI (HOP-92 NSCLC): > 100 µM
- GI50 (K-562 leukemia): 2.91 µM
- TGI (K-562 leukemia): > 100 µM
- GI50 (OVCAR-5 ovarian): 11.3 µM
- TGI (OVCAR-5 ovarian): > 100 µM
- GI50 (RXF 393 renal): 2.77 µM
- TGI (RXF 393 renal): > 100 µM
- GI50 (HCT-116 colon): 3.51 µM
- TGI (HCT-116 colon): > 100 µM
- GI50 (IGROV1 ovarian): 4.18 µM
- TGI (IGROV1 ovarian): > 100 µM
- GI50 (NCI-H23 lung): 4.05 µM
- TGI (NCI-H23 lung): > 100 µM
- GI50 (786-0 renal): 6.49 µM
- TGI (786-0 renal): > 100 µM
- GI50 (UACC-257 melanoma): > 100 µM
- TGI (UACC-257 melanoma): > 100 µM
- GI50 (HL-60(TB) leukemia): 3.21 µM
- TGI (HL-60(TB) leukemia): > 100 µM
- GI50 (ACHN renal): 7.43 µM
- TGI (ACHN renal): > 100 µM
- GI50 (NCI-H460 lung): 3.45 µM
- TGI (NCI-H460 lung): > 100 µM
- GI50 (HS 578T breast): 3.29 µM
- TGI (HS 578T breast): > 100 µM
- GI50 (HT29 colon): 3.18 µM
- TGI (HT29 colon): 65.1 µM
- GI50 (MDA-MB-435): 0.482 µM
- TGI (MDA-MB-435): > 100 µM
- GI50 (KM12 colon): 2.19 µM
- TGI (KM12 colon): > 100 µM
- GI50 (RPMI-8226 leukemia): 5.82 µM
- TGI (RPMI-8226 leukemia): > 100 µM
- GI50 (A498 renal): 2.58 µM
- TGI (A498 renal): > 100 µM
- GI50 (SK-MEL-5 melanoma): 1.61 µM
- TGI (SK-MEL-5 melanoma): 31.2 µM
- GI50 (SNB-75 CNS): 2.87 µM
- TGI (SNB-75 CNS): > 100 µM
- GI50 (M14 melanoma): 2.77 µM
- TGI (M14 melanoma): > 100 µM
- GI50 (A549 NSCLC): 4.6 µM
- TGI (A549 NSCLC): > 100 µM
- GI50 (OVCAR-8 ovarian): 5.37 µM
- TGI (OVCAR-8 ovarian): > 100 µM
- GI50 (SK-MEL-2 melanoma): 4.55 µM
- TGI (SK-MEL-2 melanoma): > 100 µM
- GI50 (SK-MEL-28 melanoma): 8.14 µM
- TGI (SK-MEL-28 melanoma): > 100 µM
- GI50 (CAKI-1 renal): 4.23 µM
- TGI (CAKI-1 renal): > 100 µM
- GI50 (HCC-2998 colon): 2.9 µM
- TGI (HCC-2998 colon): > 100 µM
- GI50 (HOP-62 NSCLC): 4.55 µM
- TGI (HOP-62 NSCLC): > 100 µM
- GI50 (HCT-15 colon): 3.73 µM
- TGI (HCT-15 colon): > 100 µM
- GI50 (OVCAR-3 ovarian): 2.05 µM
- TGI (OVCAR-3 ovarian): 4.85 µM
- GI50 (DU-145 prostate): 3.35 µM
- TGI (DU-145 prostate): 15.2 µM
- GI50 (U251 CNS): 4.22 µM
- TGI (U251 CNS): > 100 µM
- GI50 (MCF7 breast): 2.46 µM
- TGI (MCF7 breast): > 100 µM
- GI50 (UACC-62 melanoma): 3.18 µM
- TGI (UACC-62 melanoma): > 100 µM
- GI50 (LOX IMVI melanoma): 4.39 µM
- TGI (LOX IMVI melanoma): > 100 µM
- GI50 (SF-295 CNS): 2.68 µM
- TGI (SF-295 CNS): > 100 µM
- GI50 (UO-31 renal): 9.7 µM
- TGI (UO-31 renal): > 100 µM
- GI50 (EKVX NSCLC): 5.83 µM
- TGI (EKVX NSCLC): > 100 µM
- GI50 (NCI-H522 lung): 1.74 µM
- TGI (NCI-H522 lung): 4.46 µM
- GI50 (OVCAR-4 ovarian): 7.6 µM
- TGI (OVCAR-4 ovarian): > 100 µM
- GI50 (SF-268 CNS): 5.83 µM
- TGI (SF-268 CNS): > 100 µM
- GI50 (BT-549 breast): 6.39 µM
- TGI (BT-549 breast): > 100 µM
- GI50 (SN12C renal): 5.52 µM
- TGI (SN12C renal): > 100 µM
- GI50 (MDA-MB-231 breast): 3.29 µM
- TGI (MDA-MB-231 breast): 11.3 µM
- GI50 (COLO 205 colon): 2.27 µM
- TGI (COLO 205 colon): 5.68 µM
- GI50 (PC-3 prostate): 4.44 µM
- TGI (PC-3 prostate): > 100 µM
- GI50 (MOLT-4 leukemia): 6.93 µM
- TGI (MOLT-4 leukemia): > 100 µM
- GI50 (CCRF-CEM leukemia): 4.1 µM
- TGI (CCRF-CEM leukemia): > 100 µM
- GI50 (SNB-19 CNS): 3.58 µM
- TGI (SNB-19 CNS): > 100 µM
- GI50 (SW-620 colon): 3.17 µM
- TGI (SW-620 colon): > 100 µM
- GI50 (SR leukemia): 2.43 µM
- TGI (SR leukemia): > 100 µM
- GI50 (NCI/ADR-RES ovarian): 4.33 µM
- TGI (NCI/ADR-RES ovarian): > 100 µM
- GI50 (TK-10 renal): > 100 µM
- TGI (TK-10 renal): > 100 µM
- GI50 (NCI-H226 lung): 38.7 µM
- TGI (NCI-H226 lung): > 100 µM
